Tests used:
[1] = test system: electrocutaneous stimulation-induced facial pain rodent model; experiment: ES-induced facial pain model, hot thermal hyperalgesia (lamp test), prophylactic and acute treatment; format: in vivo, Sprague-Dawley rats; details: for development of heat hyperalgesia vs vehicle: day 9 at 0 time
Protocol: Immediately following assessment of mechanical pain threshold, thermal (hot- and cold induced) pain was determined. Hot thermal pain thresholds were assessed by measuring each rat's facial withdrawal latency (seconds) in response to thermal stimulation on the depilated and stimulated rat cheek by using Yeomans' Thermal Testing Lamp with the following settings: Lamp fixed ˜7 cm above depilated left cheek of rat, Voltage regulator was set to 45V for C fiber testing. Cutoff was set at 20 seconds to avoid tissue damage. Unless stated otherwise, the same materials, methods, and provisions of Example 1 were applied to Example 2. The required quantity of the compound is weighed and dissolved in 100% DMSO in a volume amounting to 5% of the total volume while placed on a stirrer. The weight of the compounds refers to the free base weights. Once the solution becomes clear/transparent, the remaining volume of the vehicle is added (30% HPBCD prepared in MQ water) to final concentrations of 0.03, 0.1, and 0.3 mg/ml for Compound 1. The solutions are kept on a stirrer before- and during administration of the compounds to the animals. The experimenter assessing the behavioral responses to drug administration is blinded to the drug treatment to the animals. Each treatment group is coded according the scheme below: • A. Vehicle (5% DMSO+30% HPBCD): 10 ml/kg • B. Compound 1: 0.3 mg/kg • C. Compound 1: 1 mg/kg • D. Compound 1: 3 mg/kg • F. Compound 1: 3 mg/kg—acute Second baseline measurement was carried out similarly to day 1, For each animal, the average of the two baseline nociceptive measurements was calculated within each pain modality (mechanical, heat- and cold pain), and used as baseline (“Baseline” point on figures). Then all rats in the above respective group (A-D) are given treated as mentioned. Group F received vehicle treatment. Treatment is continued once daily to each group same as Day 2 All rats were treated with respective treatment as per day 3-7. After 1 hr of treatment, each rat was subjected to 1 hr of electrocutaneous stimulation at depilated cheek (0.4 mA intensity, 10 ms duration, 1 s inter-pulse interval). Similar to day 1- and 2, all rats were acclimatized to test equipment followed by measurements of ES-induced facial mechanical- heat- and cold allodynia (“0” time point on figures). After measurement of hypersensitivity threshold, rats from group A-D received the vehicle and three doses of Compound 1 as mentioned above while group F received single acute dose of 3 mg/kg of Compound 1. Treatment effects on pain thresholds were evaluated 2- and 4 hours after administration by assessing mechanical- (Von Frey) and thermal (heat and cold) withdrawal threshold.

[2] = target: GABAA receptors containing the a5 subunit (Homo sapiens, UniProt P18507+P31644); details: cited from earlier work
[3] = target: GABAA receptors containing the a3 subunit (Homo sapiens, UniProt P18507+P34903); details: cited from earlier work
[4] = test system: electrocutaneous stimulation-induced facial pain rodent model; experiment: ES-induced facial pain model, cold thermal allodynia (acetone test), acute treatment; format: in vivo, Sprague-Dawley rats
From the text: The electrocutaneous stimulation-induced facial pain rodent model is a reproducible orofacial pain model in which depilated cheek area of rats are repeatedly subjected to electrical stimulation. Repeated electrical stimulation at low intensities produces craniofacial pain that mimics the behavioral characteristics of TN such as development of mechanical and thermal allodynia at cheeks despite no visible edema, swelling or excessive injury and tissue damage.
Male wild type, Sprague-Dawley rats (Charles River Laboratories) born in-house at AfaSci Research Laboratory between May 24, 2020 to May 28, 2020. At approximately 3 months of age (approximately 350 g-450 g body weight) the rats were deemed suitable for the electrocutaneous stimulation-induced facial pain model. Prior to the experiment, the rats were maintained in group cages (3 rats per cage) in a controlled environment (temperature: 21.5±4.5° C./relative humidity: 35-55%) under a standard 12 h light/12 h dark lighting cycle (lights on at 06:00).
The required quantity of the compounds are weighed and dissolved in 100% DMSO in a volume amounting to 5% of the total volume while placed on a stirrer. The weight of the compounds refers to the free base weights. […]
Second baseline measurement was carried out similarly to day 1. […] For each animal, the average of the two baseline nociceptive measurements were calculated within each pain modality (mechanical, heat- and cold pain), and used as baseline (“Baseline” point on figures).
Similarly, to day 1- and 2, all rats were subjected to acclimatization to test equipment and decapicone followed by measurements of ES-induced facial mechanical- heat- and cold allodynia (“0” time point on figures). […] Compound 1, vehicle and Carbamazepine was administered perorally in doses of 1, 3, and 10 mg/kg (Compound 1) or 30 mg/kg (carbamazepine) and drug effects on pain thresholds were evaluated 2- and 4 hours after drug administration by assessment of mechanical- (von Frey) and thermal hypersensitivity (heat- and cold stimulation respectively). […]

Chain of GABAA receptors containing the a3 subunit (P34903 29-492): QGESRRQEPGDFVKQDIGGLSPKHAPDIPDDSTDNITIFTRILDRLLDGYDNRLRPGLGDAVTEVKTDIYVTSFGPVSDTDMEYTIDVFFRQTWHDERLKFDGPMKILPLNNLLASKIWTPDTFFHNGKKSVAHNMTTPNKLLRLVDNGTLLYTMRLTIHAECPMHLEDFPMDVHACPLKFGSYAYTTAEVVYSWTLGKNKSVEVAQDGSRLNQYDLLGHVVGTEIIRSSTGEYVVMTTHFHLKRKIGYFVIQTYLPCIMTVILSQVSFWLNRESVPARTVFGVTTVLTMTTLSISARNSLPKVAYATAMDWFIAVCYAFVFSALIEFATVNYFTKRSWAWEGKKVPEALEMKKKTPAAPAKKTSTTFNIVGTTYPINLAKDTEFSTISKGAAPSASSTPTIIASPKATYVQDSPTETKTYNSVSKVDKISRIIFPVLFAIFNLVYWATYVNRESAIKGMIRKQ
Chain of GABAA receptors containing the a3 subunit (P47870 25-512 partner limits assumed): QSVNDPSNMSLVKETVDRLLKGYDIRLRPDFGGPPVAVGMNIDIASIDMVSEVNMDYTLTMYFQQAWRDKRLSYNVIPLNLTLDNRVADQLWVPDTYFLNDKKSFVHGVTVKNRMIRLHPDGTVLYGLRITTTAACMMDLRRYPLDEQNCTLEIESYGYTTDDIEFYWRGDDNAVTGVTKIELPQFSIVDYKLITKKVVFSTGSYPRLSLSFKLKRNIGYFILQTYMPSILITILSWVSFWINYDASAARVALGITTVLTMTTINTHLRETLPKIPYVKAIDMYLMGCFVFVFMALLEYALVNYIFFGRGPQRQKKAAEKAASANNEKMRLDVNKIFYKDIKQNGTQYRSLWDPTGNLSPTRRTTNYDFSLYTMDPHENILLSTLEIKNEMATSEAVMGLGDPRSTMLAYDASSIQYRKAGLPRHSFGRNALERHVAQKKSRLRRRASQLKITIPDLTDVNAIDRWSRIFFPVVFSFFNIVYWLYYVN
Chain of GABAA receptors containing the a3 subunit (P18507 40-475): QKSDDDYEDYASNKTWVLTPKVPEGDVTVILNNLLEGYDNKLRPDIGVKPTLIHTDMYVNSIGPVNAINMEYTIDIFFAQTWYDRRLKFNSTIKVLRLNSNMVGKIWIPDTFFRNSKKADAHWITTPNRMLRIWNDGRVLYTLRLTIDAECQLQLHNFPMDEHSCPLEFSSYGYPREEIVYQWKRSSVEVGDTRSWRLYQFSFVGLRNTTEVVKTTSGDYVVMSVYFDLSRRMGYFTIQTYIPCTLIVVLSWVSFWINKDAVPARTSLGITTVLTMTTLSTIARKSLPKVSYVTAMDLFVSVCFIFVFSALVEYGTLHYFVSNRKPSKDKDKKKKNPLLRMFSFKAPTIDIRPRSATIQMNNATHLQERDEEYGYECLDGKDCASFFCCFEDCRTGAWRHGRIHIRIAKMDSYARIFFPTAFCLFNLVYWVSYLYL
Chain of GABAA receptors containing the a5 subunit (P31644 32-462): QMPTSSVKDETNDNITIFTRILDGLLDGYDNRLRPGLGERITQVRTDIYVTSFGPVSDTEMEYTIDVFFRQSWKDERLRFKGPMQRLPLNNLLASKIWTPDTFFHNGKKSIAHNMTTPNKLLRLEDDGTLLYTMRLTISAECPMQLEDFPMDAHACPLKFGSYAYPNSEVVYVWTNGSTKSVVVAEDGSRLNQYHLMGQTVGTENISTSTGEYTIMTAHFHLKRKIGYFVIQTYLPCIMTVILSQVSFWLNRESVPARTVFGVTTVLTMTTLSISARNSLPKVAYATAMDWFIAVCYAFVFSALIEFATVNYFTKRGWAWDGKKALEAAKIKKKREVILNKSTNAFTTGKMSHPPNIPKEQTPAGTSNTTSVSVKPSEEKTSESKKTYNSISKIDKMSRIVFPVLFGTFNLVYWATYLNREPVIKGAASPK
Chain of GABAA receptors containing the a5 subunit (P47870 25-512 partner limits assumed): as the sequence (P47870 25-512 partner limits assumed) above
Chain of GABAA receptors containing the a5 subunit (P18507 40-475): as the sequence (P18507 40-475) above

## COc1ncc(-c2cccc(-n3cnc4cc(C(C)(C)O)cnc43)c2)c(OC)n1 [Compound 1, 2-(3-(3-(2,4-dimethoxypyrimidin-5-yl)phenyl)-3H-imidazo[4,5-b]pyridin-6-yl)propan-2-ol]
[1]; acute 3 mg/kg po on day 9, p<0.0001 post 2 and 4 hrs
  effect on established heat hyperalgesia vs vehicle: reversed the heat hyperalgesia
[1]; prophylactic 0.3 mg/kg po plus additional dose on day 9, p<0.05 post 2 hrs, p<0.001 post 4 hrs
  effect on established heat hyperalgesia vs vehicle: further enhanced the analgesic effect
[1]; prophylactic 1 mg/kg po once daily for 7 days, p<0.05 vs vehicle
  development of heat hyperalgesia vs vehicle: significantly reduced the development of heat hyperalgesia
[1]; prophylactic 1 mg/kg po plus additional dose on day 9, p<0.0001 post 2 hrs and post 4 hrs
  effect on established heat hyperalgesia vs vehicle: further enhanced the analgesic effect
[1]; prophylactic 3 mg/kg po once daily for 7 days, p<0.0001 vs vehicle
  development of heat hyperalgesia vs vehicle: significantly reduced the development of heat hyperalgesia
[1]; prophylactic 3 mg/kg po plus additional dose on day 9, p<0.0001 post 2 hrs and post 4 hrs
  effect on established heat hyperalgesia vs vehicle: further enhanced the analgesic effect
[2]
  positive allosteric modulation of GABAA receptors containing the a5 subunit: to a minor extent
[3]
  modulation of GABAA receptors containing the a3 subunit: positive allosteric modulator (PAM)
[4]; 10 mg/kg po, 2 and 4 hours of treatment, p<0.001 and p<0.0001 vs vehicle
  effect on cold pain threshold (acetone test, facial withdrawal latency) vs vehicle: significant enhancement of the cold pain threshold
[4]; po, p<0.01 after 2 and 4 hrs of dosing vs vehicle
  minimum effective dose, cold allodynia (acetone test): 3 mg/kg

Reference: patent publication US20240197733A1, “A GABA RECEPTOR MODULATOR FOR USE IN THE TREATMENT OF PAIN” (SANIONA A/S, priority 2021, published 2024)
